The results in this text go back to patent publication US8822462B2, “Subunit selective NMDA receptor potentiators for the treatment of neurological conditions” (Emory University, priority 2009, dated 2014).

pIC50: −log10 of the molar value. Like-named read-outs stand apart in the source and are kept apart here.

Assay [1] has as its target T1, NR1/NR2A (Homo sapiens, UniProt Q12879).
T1 construct: expressed in transfected cells; host or cells: Xenopus laevis oocytes
In words: Two electrode voltage clamp, Xenopus laevis oocytes expressing NR1/NR2A. The assay is classed as cell-based. To be noted: read-out: 2A percent effect at the maximum tested concentration. As for the experimental part: (§1) In the table above, potency is expressed as fitted EC50 value to average composite concentration-effect data constructed from current responses recorded under two electrode voltage clamp from Xenopus laevis oocytes expressing either NR1/NR2A, B, C, or D, GluR1, or GluR6. No effect means less than 20% change in response amplitude at 30 μM of drug.
Background: Two-electrode voltage clamp is typically applied to oocytes expressing channels or transporters.

Assay [2] has as its target T2, NR1/NR2B (Homo sapiens, UniProt Q05586+Q13224).
T2 construct: expressed in transfected cells; host or cells: Xenopus laevis oocytes
The assay is described as follows: Two electrode voltage clamp, Xenopus laevis oocytes expressing NR1/NR2B. The assay is classed as cell-based. To be noted: for pIC50: fitted to composite concentration-effect data, Max 0 = inhibition, read-out: 2B IC50. As for the experimental part: as §1

The target of assay [3] is T3, NR1/NR2C (Homo sapiens, UniProt Q05586+Q14957).
T3 construct: expressed in transfected cells; host or cells: Xenopus laevis oocytes
The assay is described as follows: Two electrode voltage clamp, Xenopus laevis oocytes expressing NR1/NR2C. Format: cell-based. To be noted: for pIC50: fitted to composite concentration-effect data, read-out: 2C IC50; for Emax: maximal effect of fit, read-out: 2C Max; for activity at 100 µM: read-out: 2C percent effect at the maximum tested concentration.
Source text: Values are mean+SEM (n=14-20). […] C is the closed level; broken line is the open level.
The Hill slope at both receptors for all analogues was greater than 1, consistent with a cooperative effect of binding at two sites.
as §1

Assay [4] deals with NR1/NR2D (Homo sapiens, UniProt O15399+Q05586). The assay is described as follows: Two electrode voltage clamp, Xenopus laevis oocytes expressing NR1/NR2D. To be noted: for Emax: read-out: 2D Max.
Setting [5] is: read-out: 2B percent effect at the maximum tested concentration.
Where [6] appears, read: read-out: 2D percent effect at the maximum tested concentration, at 100 μM.

T3 sequence (Q14957 20-1233, species assumed, other chains not shown): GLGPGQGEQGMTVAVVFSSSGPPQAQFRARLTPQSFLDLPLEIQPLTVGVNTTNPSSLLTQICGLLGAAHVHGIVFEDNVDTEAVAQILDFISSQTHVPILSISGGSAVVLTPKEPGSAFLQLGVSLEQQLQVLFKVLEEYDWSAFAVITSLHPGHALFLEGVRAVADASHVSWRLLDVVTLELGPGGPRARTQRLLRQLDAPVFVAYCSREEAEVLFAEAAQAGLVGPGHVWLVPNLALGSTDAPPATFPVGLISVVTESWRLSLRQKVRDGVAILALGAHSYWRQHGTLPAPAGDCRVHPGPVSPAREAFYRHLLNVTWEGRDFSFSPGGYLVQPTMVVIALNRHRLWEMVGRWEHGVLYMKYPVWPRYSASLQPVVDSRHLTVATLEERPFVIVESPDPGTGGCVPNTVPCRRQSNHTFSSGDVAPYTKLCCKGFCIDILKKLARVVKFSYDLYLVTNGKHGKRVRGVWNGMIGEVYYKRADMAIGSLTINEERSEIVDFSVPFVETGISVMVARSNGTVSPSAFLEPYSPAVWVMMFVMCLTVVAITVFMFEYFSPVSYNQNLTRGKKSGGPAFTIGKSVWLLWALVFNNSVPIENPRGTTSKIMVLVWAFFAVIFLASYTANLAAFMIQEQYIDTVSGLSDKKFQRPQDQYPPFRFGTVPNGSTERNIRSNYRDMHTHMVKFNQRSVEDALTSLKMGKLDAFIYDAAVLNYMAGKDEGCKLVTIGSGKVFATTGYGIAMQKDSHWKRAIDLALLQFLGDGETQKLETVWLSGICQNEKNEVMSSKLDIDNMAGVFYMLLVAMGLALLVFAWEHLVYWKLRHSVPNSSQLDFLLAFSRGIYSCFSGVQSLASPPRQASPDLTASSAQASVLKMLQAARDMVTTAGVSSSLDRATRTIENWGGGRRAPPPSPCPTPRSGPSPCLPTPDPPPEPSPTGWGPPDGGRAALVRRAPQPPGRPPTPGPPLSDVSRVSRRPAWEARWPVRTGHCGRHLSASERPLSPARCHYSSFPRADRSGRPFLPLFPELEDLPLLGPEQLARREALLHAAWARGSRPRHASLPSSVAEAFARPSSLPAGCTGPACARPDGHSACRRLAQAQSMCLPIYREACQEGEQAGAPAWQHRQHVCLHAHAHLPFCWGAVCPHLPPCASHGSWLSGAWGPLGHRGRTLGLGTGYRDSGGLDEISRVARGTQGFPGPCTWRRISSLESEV
T1 sequence (Q12879 23-1464, species assumed, other chains not shown): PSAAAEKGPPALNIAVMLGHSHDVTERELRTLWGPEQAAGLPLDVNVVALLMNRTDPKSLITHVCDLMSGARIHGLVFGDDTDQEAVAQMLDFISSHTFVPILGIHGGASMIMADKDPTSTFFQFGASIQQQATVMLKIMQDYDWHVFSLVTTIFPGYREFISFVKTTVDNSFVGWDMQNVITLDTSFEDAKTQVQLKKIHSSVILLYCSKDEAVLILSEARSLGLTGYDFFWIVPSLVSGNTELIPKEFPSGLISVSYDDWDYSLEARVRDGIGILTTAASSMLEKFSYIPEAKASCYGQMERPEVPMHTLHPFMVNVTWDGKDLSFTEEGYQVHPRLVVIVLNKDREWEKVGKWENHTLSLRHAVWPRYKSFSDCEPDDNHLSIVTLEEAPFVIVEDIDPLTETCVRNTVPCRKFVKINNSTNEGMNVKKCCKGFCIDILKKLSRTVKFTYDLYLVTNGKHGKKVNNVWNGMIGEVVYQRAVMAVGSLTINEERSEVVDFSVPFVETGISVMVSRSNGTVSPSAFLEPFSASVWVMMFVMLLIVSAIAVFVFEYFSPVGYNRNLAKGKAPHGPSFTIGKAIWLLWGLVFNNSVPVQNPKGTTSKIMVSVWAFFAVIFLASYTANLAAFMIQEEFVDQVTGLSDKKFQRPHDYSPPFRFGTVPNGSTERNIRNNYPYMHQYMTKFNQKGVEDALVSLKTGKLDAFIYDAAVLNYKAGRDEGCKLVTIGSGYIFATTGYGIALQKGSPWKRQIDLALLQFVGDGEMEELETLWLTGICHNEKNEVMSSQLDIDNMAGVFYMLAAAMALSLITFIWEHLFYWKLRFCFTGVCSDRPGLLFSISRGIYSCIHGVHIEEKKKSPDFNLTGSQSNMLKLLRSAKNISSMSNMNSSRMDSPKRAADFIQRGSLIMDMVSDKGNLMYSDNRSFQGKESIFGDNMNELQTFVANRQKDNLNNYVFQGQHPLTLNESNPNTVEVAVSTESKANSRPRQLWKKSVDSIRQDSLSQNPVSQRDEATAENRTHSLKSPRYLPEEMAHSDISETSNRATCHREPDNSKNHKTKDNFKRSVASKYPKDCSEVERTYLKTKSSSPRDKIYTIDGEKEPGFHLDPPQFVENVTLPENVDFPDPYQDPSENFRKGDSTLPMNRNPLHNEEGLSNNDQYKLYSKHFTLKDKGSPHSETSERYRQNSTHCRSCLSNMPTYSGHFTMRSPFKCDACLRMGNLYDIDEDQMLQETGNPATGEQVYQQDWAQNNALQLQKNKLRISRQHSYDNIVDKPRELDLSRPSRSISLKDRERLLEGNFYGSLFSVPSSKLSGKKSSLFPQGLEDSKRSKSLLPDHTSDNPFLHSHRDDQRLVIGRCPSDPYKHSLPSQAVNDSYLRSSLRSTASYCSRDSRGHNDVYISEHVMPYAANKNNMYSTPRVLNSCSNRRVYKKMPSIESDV
Chain of NR1/NR2D (O15399 28-1336, species assumed, other chains not shown): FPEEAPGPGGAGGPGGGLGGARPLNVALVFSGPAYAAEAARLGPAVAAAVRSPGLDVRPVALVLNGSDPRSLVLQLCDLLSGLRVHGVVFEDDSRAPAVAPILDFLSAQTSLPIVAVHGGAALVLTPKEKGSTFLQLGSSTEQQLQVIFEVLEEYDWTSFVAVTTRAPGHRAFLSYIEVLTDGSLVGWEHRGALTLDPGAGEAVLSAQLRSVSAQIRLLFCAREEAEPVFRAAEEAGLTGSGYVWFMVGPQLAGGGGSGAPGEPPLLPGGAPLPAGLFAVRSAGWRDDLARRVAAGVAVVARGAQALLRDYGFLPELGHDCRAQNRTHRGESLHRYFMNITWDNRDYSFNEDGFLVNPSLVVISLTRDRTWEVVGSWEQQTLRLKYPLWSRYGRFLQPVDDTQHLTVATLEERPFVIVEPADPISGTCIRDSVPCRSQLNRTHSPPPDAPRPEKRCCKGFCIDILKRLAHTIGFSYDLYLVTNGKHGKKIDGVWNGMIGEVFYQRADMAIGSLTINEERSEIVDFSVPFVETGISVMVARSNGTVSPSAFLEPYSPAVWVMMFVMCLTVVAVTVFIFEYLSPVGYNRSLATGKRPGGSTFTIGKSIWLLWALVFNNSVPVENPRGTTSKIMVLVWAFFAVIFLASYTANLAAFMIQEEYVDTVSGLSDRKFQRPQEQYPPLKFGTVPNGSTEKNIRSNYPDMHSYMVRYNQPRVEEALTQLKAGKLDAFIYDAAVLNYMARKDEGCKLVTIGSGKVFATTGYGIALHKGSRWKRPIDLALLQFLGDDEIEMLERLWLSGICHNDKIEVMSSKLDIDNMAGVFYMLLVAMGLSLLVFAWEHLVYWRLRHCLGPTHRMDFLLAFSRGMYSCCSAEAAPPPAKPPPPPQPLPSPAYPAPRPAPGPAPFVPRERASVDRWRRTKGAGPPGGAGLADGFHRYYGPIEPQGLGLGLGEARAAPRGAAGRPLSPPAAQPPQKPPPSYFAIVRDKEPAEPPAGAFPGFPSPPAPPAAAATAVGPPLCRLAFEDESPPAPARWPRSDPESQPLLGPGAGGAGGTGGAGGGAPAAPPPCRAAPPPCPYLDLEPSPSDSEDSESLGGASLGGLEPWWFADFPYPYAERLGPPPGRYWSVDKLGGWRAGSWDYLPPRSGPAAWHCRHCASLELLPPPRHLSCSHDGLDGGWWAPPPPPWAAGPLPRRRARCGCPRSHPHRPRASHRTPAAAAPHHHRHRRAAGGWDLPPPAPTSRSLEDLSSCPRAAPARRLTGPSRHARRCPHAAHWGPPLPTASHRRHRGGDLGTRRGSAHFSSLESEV

A word on the pIC50: it is the IC50 on a negative log10 scale, so that one unit is a factor of ten. In the case of `COc1ccc(OCC2c3cc(OC)c(OC)cc3CCN2C(=O)c2cccc([N+](=O)[O-])c2)cc1` (centres unmarked) [1180-16], the activity at 100 µM worked out at 50% in assay [1] and 123% in assay [2] (setting [5]). The results for the pIC50 in assay [3] and in assay [4] were 4.89 and 4.80, respectively. The Emax is 267% in assay [3] and 297% in assay [4].

With `COc1ccc(OCC2c3cc(OC)c(OC)cc3CCN2Cc2ccccc2)cc1` (centres unmarked) [1180-17], the activity at 20 µM in assay [1] (at 20 μM) came out at 50%. The activity at 100 µM in assay [2] (setting [5]) is 90%; in assay [3], 95%; in assay [4] (setting [6]) it was 83%.

In the case of `COc1ccc(OCC2c3cc(OC)c(OC)cc3CCN2C(=O)c2ccc(F)c(Cl)c2)cc1` (centres unmarked) [1180-18], the activity at 100 µM in assay [1] was found to be 136%; in assay [2] (setting [5]), 95%. In addition, the pIC50 in assay [3] was 5.22; in assay [4] it was 5.15. In addition, the Emax in assay [3] was 226%; in assay [4], 206%.

Consider `COc1ccc(OCC2c3c(cc(OC)cc3OC)CCN2C(=O)c2ccccc2)cc1` (centres unmarked) [1180-19], for which the activity at 100 µM in assay [1] came to 63%; in assay [2] (setting [5]), 100%. Further, the pIC50 in assay [3] was 5.00; in assay [4], 5.05. Besides, the Emax in assay [3] came out at 160%; in assay [4], 150%.

For the compound `COc1ccc(OCC2c3c(cc(OC)cc3OC)CCN2C(=O)c2cccc(Cl)c2)cc1` (centres unmarked) [1180-20], the activity at 100 µM in assay [1] was found to be 92%; in assay [2] (setting [5]), 86%. For the same compound, the results for the pIC50 in assay [3] and in assay [4] were 4.96 and 4.74, respectively. Further, the Emax in assay [3] is 253%; in assay [4], 271%.

`COc1ccc(OCC2c3c(cc(OC)cc3OC)CCN2C(=O)c2cccc(Br)c2)cc1` (centres unmarked) [1180-21]: the activity at 100 µM in assay [1] amounted to 92%; in assay [2] (setting [5]), 72%. Also, the pIC50 in assay [3] and in assay [4] was 5.15 each time. For the same compound, the Emax was 265% in assay [3] and 230% in assay [4].

With `COc1cc2c(cc1OC)C(COc1ccc(OCc3ccccc3)cc1)N(C(=O)c1cccc(Cl)c1)CC2` (centres unmarked) [1180-22], the activity at 100 µM in assay [1] amounted to 95%; in assay [3] it was 79%; in assay [4] (setting [6]), 58%. The activity at 20 µM in assay [2] (at 20 μM, read-out: 2B percent effect at the maximum tested concentration) was 50%.

Consider `COc1ccc(OCC2c3cc(OC)c(OC)cc3CCN2C(=O)N2CCOCC2)cc1` (centres unmarked) [1180-23], for which the activity at 100 µM turned out to be 140% in assay [1], 61% in assay [2] (setting [5]), 87% in assay [3] and 78% in assay [4] (setting [6]).

Regarding `COc1ccc(OCC2c3cc(OC)c(OC)cc3CCN2C(=O)CN2CCOCC2)cc1` (centres unmarked) [1180-24], the activity at 100 µM amounted to 100% in assay [1], 96% in assay [2] (setting [5]), 79% in assay [3] and 83% in assay [4] (setting [6]).

Regarding `COc1ccc(OCC2c3cc4c(cc3CCN2C(=O)c2cccc(Cl)c2)OCO4)cc1` (centres unmarked) [1180-25], the activity at 100 µM in assay [1] is 96%; in assay [2] (setting [5]), 76%. Further, the pIC50 in assay [3] was 4.92; in assay [4], 5.15. In addition, the Emax in assay [3] came out at 188%; in assay [4] it was 162%.

In the case of `COc1ccc(OCC2c3ccc(OC)cc3CCN2C(=O)c2cccc(Cl)c2)cc1` (centres unmarked) [1180-26], the activity at 100 µM came out at 93% in assay [1] and 75% in assay [2] (setting [5]). The pIC50 is 6.10 in assay [3] and 6.00 in assay [4]. Moreover, the values for the Emax in assay [3] and in assay [4] were 196% and 185%, respectively.

Turning to `COc1ccc(OCC2c3ccc(OC)cc3CCN2C(=O)c2cccc(Br)c2)cc1` (centres unmarked) [1180-27], the activity at 100 µM in assay [1] stood at 107%; in assay [2] (setting [5]) it was 77%. For the same compound, the pIC50 in assay [3] and in assay [4] was 6.00 each time. Further, the Emax in assay [3] was 192%; in assay [4], 168%.

With `COc1cc2c(cc1OC)CN(C(=O)c1ccccc1)CC2` [1180-28], the activity at 100 µM in assay [1] is 71%; in assay [2] (setting [5]), 95%; in assay [3], 78%; in assay [4] (read-out: 2D percent effect at the maximum tested concentration) it was 80%.

As for `COc1ccc(/C=C/C2c3cc(OC)c(OC)cc3CCN2C(=O)c2cccc(Cl)c2)cc1` (centres unmarked) [1180-31], the activity at 30 µM in assay [1] (at 30 μM) was determined as 95%; in assay [2] (at 30 μM, read-out: 2B percent effect at the maximum tested concentration), 82%. Besides, the pIC50 is 5.92 in assay [3] and 5.82 in assay [4]. Further, the figures for the Emax in assay [3] and in assay [4] were 190% and 172%, respectively.

For the compound `CSC1=NCCN1C(=O)c1ccc(C(C)(C)C)cc1` [compound 1343], the activity at 100 µM in assay [1] was 115%. In addition, the pIC50 was 3.86 in assay [2], 3.86 in assay [3] and 3.68 in assay [4]. Further, the Emax in assay [3] is 303%; in assay [4], 480%.

In the case of `CSC1=NCCN1C(=O)c1ccc(C)cc1` [compound 1344], the activity at 100 µM came out at 78% in assay [1], 88% in assay [3] and 97% in assay [4] (setting [6]). In assay [2], the pIC50 is 3.76.

As for `Cc1cc(C(=O)O)c(NC(=O)c2ccc(C(C)(C)C)cc2)s1` [compound 1357], the activity at 100 µM in assay [1] and in assay [2] (setting [5]) was 102% each time. Further, the pIC50 was 3.76 in assay [3] and 3.92 in assay [4]. Besides, the Emax came to 388% in assay [3] and 326% in assay [4].

As to `CCc1ccc(OCC2c3cc(OC)c(OC)cc3CCN2C(=O)c2ccccc2)cc1` (centres unmarked) [compound 1366], the values for the activity at 100 µM in assay [1], in assay [2] (setting [5]) and in assay [4] (setting [6]) were 98%, 97% and 108%, respectively. In addition, the pIC50 in assay [3] was 5.52. For the same compound, the Emax in assay [3] is 121%.

`COc1ccc(OCC2c3cc(OC)c(OC)cc3CCN2C(=O)c2ccc(Cl)cc2)cc1` (centres unmarked) [compound 1368]: the values for the activity at 100 µM in assay [1] and in assay [2] (setting [5]) were 105% and 78%, respectively. Also, the pIC50 in assay [3] is 5.40; in assay [4] it was 5.30. For the same compound, the Emax in assay [3] turned out to be 135%; in assay [4] it was 114%.

In the case of `COc1ccc(OCC2c3cc(OC)c(OC)cc3CCN2C(=O)c2cccc(F)c2)cc1` (centres unmarked) [compound 1369], the activity at 100 µM in assay [1] is 94%; in assay [2] (setting [5]), 84%. The pIC50 in assay [3] and in assay [4] was 5.15 throughout. In addition, the Emax in assay [3] was 184%; in assay [4], 169%.

As for `COc1ccc(OCC2c3cc(OC)c(OC)cc3CCN2C(=O)c2ccc([N+](=O)[O-])cc2)cc1` (centres unmarked) [compound 1370], the activity at 100 µM in assay [1] turned out to be 77%; in assay [2] (setting [5]) it was 78%; in assay [3], 83%; in assay [4] (setting [6]), 95%.

For `COc1ccc(OCC2c3cc(OC)c(OC)cc3CCN2C(=O)c2ccc(C)cc2)cc1` (centres unmarked) [compound 1371], the activity at 100 µM in assay [1] came to 73%; in assay [2] (setting [5]), 70%; in assay [3], 89%; in assay [4] (setting [6]), 100%.

With `COc1ccc(OCC2c3cc(OC)c(OC)cc3CCN2C(=O)c2cccc(Cl)c2)cc1` (centres unmarked) [compound 1390], the activity at 100 µM in assay [1] amounted to 115%; in assay [2] (setting [5]) it was 82%. In addition, the pIC50 in assay [3] and in assay [4] was 5.52 throughout. In addition, the Emax is 215% in assay [3] and 205% in assay [4].

For `COc1ccc(OCC2c3cc(OC)c(OC)cc3CCN2C(=O)c2cccc(Br)c2)cc1` (centres unmarked) [compound 1391], the activity at 100 µM is 119% in assay [1] and 74% in assay [2] (setting [5]). In addition, the pIC50 in assay [3] was 6.00; in assay [4] it was 5.70. Further, the figures for the Emax in assay [3] and in assay [4] were 195% and 188%, respectively.

As to `COc1ccc(OCC2c3cc(OC)c(OC)cc3CCN2C(=O)c2cccc(OC)c2)cc1` (centres unmarked) [compound 1392], the activity at 100 µM in assay [1] came out at 104%; in assay [2] (setting [5]), 59%. Moreover, the figures for the pIC50 in assay [3] and in assay [4] were 5.22 and 4.92, respectively. Further, the figures for the Emax in assay [3] and in assay [4] were 181% and 179%, respectively.

Turning to `COc1ccc(OCC2c3cc(OC)c(OC)cc3CCN2C(=O)c2ccc(Br)cc2)cc1` (centres unmarked) [compound 1393], the activity at 100 µM stood at 120% in assay [1], 80% in assay [2] (setting [5]), 96% in assay [3] and 94% in assay [4] (setting [6]).

On to `COc1cc2c(cc1OC)C(COc1ccc(F)cc1)N(C(=O)c1cccc(F)c1)CC2` (centres unmarked) [compound 1394], for which the activity at 100 µM in assay [1] amounted to 101%; in assay [2] (setting [5]), 61%; in assay [3], 71%; in assay [4] (setting [6]), 68%.

As to `Cc1ccc(C(=O)Nc2sc(C)cc2C(=O)O)cc1` [compound 1395], the activity at 100 µM came to 92% in assay [1], 94% in assay [2] (setting [5]), 95% in assay [3] and 77% in assay [4] (setting [6]).

As for `Cc1cc(C(=O)O)c(NC(=O)c2ccccc2)s1` [compound 1396], the activity at 100 µM in assay [1] came to 96%; in assay [2] (setting [5]), 97%; in assay [3], 95%; in assay [4] (setting [6]) it was 81%.
